Earlier results, collected in patent US20130237476A1, “ADIPOSE TISSUE TARGETED PEPTIDES” (ABLARIS THERAPEUTICS INC., priority 2012, published 2013).
Where no end group is shown, it is not given here. [ ]: non-standard residue; d: D form. Ex = not defined here

How the values were obtained:
[1] = system: prohibitin; settings: Kolonin et al., Nat Med 2004; prohibitin expressed in adipose tissue
[2] = system: visceral adipose tissue (white fat)
[3] = diastereomeric peptide with 5th and 9th residues as L-analogs; comparator not stated

Substance: CKGGRAKDC [adipose targeting peptide]
- association with prohibitin [1]: associates with prohibitin

Substance: CKGGRAKDC-GG-D(KLAKLAKKLAKLAK) (CKGGRAKDCGG[dK][dL][dA][dK][dL][dA][dK][dK][dL][dA][dK][dL][dA][dK]; cysteine pairing not given here) [ABL-1, targeting peptide operably linked to an apoptotic therapeutic peptide]
- obesity reversal ([2]; animal models, after resorption of established white fat): rapid obesity reversal
- ablation of visceral adipose tissue ([2]; targets prohibitin in adipose vascular endothelial cells): cause ablation of visceral adipose tissue

Substance: D,L-(KExAKExAK)2 (K[Ex]AK[Ex]AKK[Ex]AK[Ex]AK; reading uncertain; also: D/L diastereomeric residues, positions not given here) [diasteriomeric peptide in which the 5th and 9th residues were replaced with L-analogs to disrupt alpha helicity]
- hemolytic activity [3]: greatly reduced
